# Results reported in paper PMC11040648, “Highly tunable bimane-based fluorescent probes: design, synthesis, and application as a selective amyloid binding dye” (Chemical Science, 2024).
# Target: T1, tau (fibrils) (Homo sapiens, UniProt P10636)
# T1 construct: gene MAPT; tau amyloid fibrils
# Test: fluorescence turn-on with […] fibrils ([…] lower than αS), emission maximum […] nm
# Assay type: binding
# T1 sequence (P10636 1-441 isoform P10636-8): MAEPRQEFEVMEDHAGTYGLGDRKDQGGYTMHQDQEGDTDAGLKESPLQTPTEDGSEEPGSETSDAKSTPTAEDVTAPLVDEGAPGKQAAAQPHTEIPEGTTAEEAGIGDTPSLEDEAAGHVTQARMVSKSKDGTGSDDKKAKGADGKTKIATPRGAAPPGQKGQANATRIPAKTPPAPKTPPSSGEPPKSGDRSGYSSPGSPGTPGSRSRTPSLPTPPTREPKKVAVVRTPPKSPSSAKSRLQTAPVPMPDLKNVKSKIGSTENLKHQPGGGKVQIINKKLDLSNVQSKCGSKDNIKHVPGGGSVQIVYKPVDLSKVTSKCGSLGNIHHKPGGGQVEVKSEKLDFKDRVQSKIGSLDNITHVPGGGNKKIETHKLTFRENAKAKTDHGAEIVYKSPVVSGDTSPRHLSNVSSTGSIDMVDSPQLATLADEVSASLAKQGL
smiles,measurement,value
Cc1c(C)n2c(/C=C/c3ccc(N(C)C)cc3)c(C)c(=O)n2c1=O [5k],"fluorescence turn-on with 10 μM fibrils (2.8-fold lower than αS), emission maxim","although 5k binds to both αS and tau, it has a greater fluorescence activation"
